The text below walks through data of patent publication US20260125683A1, “TREATMENT OF CANCERS HAVING A DRUG-RESISTANT MESENCHYMAL CELL STATE” (DANA-FARBER CANCER INSTITUTE, INC., priority 2023, published 2026).

The test system of data set [1] is KP4, Panc1, Miapaca2 and 8988T (mesenchymal) vs Panc0403, Panc0504 and 8988S (epithelial) cancer cell lines. As to the kind of experiment: Cell growth by cell-titer-glo assay, mesenchymal vs epithelial cancer cell lines. As to conditions: FIG. 8. Format: cell-based. As for the experimental part: Validation studies were performed for two mesenchymal selective dependencies.

In data set [2] the test system is Survivin promoter. As to conditions: HeLa-SURP-luc and CHO-SV40-luc cells; read-out: IC50, inhibition of Survivin promoter activity; cited from earlier work.
Data set [3] relates to SV40 promoter. The note with it: cited from earlier work.
The test system of data set [4] is tumor cells having a mesenchymal state. Nature of the data set: EMT signature and drug sensitivity data (PRISM and CTD^2, FIG. 2). The note with it: mesenchymal vs epithelial state.
Procedure: Data Curation. All analyses were performed using publicly available data downloaded from the Dependency Map web portal, corresponding to the 22Q2 release. Drug testing data was from the 19Q4 release of PRISM and the most recent release (2015) of CTD (Gröger, C. J., et al., 2012). EMT gene sets were taken from the supplementals of the Byers (2013), Groger (2012), and Taube (2010) EMT related publications. Gene sets were broken down into up (mesenchymal) and down (epithelial) sub-gene sets. If up or down is not labeled in a figure, the composite gene set (union of the up and down lists) was used for scoring. Only carcinoma coded cell lines were used in analyses. These carcinoma lines were then subset further, when indicated, based on KRAS mutation or pancreas lineage.
Computational Methods. Analyses were performed using the statistical programming language R (v4.0.3, macOS 12.5.1, platform: x86_64-apple-darwin17.0 (64-bit)). EMT scores were generated using the GSVA package (v1.38.2) and Pearson correlations were calculated using the base cor function. All plots were generated using ggplot2 (v3.3.6). Data manipulation was performed using the dplyr (v1.0.8) and reshape2 (v.1.4.4) packages.
Data set [5] relates to carcinoma cell lines. Nature of the data set: Correlation of EMT signatures with PRISM compound AUCs. The note with it: PRISM drug testing cohort. From the text: (§1) FIG. 2A-2B—Investigation of the EMT signature and drug sensitivity data. FIG. 2A illustrates the top and bottom correlations between the PRISM compound AUCs (measure of drug sensitivity with a higher value indicating resistance) across three independent EMT down (FIG. 2A) and up (FIG. 2A continued) signatures (Byers, Groger, and Taube). FIG. 2B illustrates the top and bottom correlations between the CTD^2 drug testing cohort compound AUCs with the down (FIG. 2B) and up (FIG. 2B continued) EMT signatures (Byers, Groger, and Taube).
(§2) Applicants analyzed correlations between the EMT signatures and drug sensitivities (FIG. 2).
(§3) Data Curation. All analyses were performed using publicly available data downloaded from the Dependency Map web portal, corresponding to the 22Q2 release. Drug testing data was from the 19Q4 release of PRISM and the most recent release (2015) of CTD ([…]). EMT gene sets were taken from the supplementals of the Byers (2013), Groger (2012), and Taube (2010) EMT related publications. Gene sets were broken down into up (mesenchymal) and down (epithelial) sub-gene sets. If up or down is not labeled in a figure, the composite gene set (union of the up and down lists) was used for scoring. […]
(§4) Computational Methods. […] EMT scores were generated using the GSVA package (v1.38.2) and Pearson correlations were calculated using the base cor function. […]

For data set [6] the following is noted: cited from earlier work.
Data set [7] deals with variety of cell types. The note with it: cited from earlier work.
The test system of data set [8] is various cancer cell lines. The note with it: read-out: IC50, apoptosis induction; cited from earlier work.
Data set [9] relates to normal human fibroblasts. As to conditions: read-out: IC50, apoptosis induction; cited from earlier work.
In data set [10] the target is MCT2 (Homo sapiens, UniProt O60669). As to conditions: cited from earlier work.
Chain of MCT2 (O60669 whole entry, species assumed): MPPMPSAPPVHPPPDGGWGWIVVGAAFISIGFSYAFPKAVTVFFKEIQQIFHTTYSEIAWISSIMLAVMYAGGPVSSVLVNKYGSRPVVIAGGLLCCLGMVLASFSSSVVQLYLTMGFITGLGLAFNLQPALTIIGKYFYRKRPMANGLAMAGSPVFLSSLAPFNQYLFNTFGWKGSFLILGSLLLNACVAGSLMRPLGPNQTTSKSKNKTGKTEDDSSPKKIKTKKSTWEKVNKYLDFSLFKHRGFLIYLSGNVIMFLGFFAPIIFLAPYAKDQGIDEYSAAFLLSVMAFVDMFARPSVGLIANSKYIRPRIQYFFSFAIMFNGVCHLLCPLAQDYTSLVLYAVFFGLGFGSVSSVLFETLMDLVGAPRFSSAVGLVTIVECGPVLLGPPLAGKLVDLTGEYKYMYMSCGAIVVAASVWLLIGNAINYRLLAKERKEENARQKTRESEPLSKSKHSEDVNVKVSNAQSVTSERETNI
Data set [11] has as its target MCT1 (Homo sapiens, UniProt P53985). As to conditions: cited from earlier work.
The target of data set [12] is sodium/D-glucose cotransporter. As to conditions: cited from earlier work.
For data set [13], the system named is neutrophil chemotaxis. As to conditions: in vitro; read-out: IC50, neutrophil chemotaxis in response to IL-8; cited from earlier work.
Data set [14] relates to neutrophil margination. The note with it: in vivo; read-out: IC50, neutrophil margination induced by IL-8; cited from earlier work.
The test system of data set [15] is platelet aggregation. The note with it: cited from earlier work.
Data set [16] concerns the target PAR2 (Homo sapiens, UniProt P55085). The note with it: cited from earlier work.
Data set [17] concerns the target PAR4 (Homo sapiens, UniProt Q96RI0). As to conditions: cited from earlier work.
Data set [18] has as its target proteinase-activated receptor 1 (PAR1) (Homo sapiens, UniProt P25116). The note with it: read-out: IC50, blocking binding of haTRAP; cited from earlier work.
For data set [19], the system named is carcinoma cell lines. Nature of the data set: Correlation of EMT signatures with CTD^2 compound AUCs. As to conditions: CTD^2 drug testing cohort.
Excerpt: as §1, §2, §3, §4

In data set [20] the test system is anandamide uptake. As to conditions: cited from earlier work.
Data set [21] deals with anandamide levels. As to conditions: rat cerebellum; cited from earlier work.
The target in data set [22] is Glut1 (Homo sapiens, UniProt P11166). As to conditions: cited from earlier work.
Chain of Glut1 (P11166 whole entry, species assumed): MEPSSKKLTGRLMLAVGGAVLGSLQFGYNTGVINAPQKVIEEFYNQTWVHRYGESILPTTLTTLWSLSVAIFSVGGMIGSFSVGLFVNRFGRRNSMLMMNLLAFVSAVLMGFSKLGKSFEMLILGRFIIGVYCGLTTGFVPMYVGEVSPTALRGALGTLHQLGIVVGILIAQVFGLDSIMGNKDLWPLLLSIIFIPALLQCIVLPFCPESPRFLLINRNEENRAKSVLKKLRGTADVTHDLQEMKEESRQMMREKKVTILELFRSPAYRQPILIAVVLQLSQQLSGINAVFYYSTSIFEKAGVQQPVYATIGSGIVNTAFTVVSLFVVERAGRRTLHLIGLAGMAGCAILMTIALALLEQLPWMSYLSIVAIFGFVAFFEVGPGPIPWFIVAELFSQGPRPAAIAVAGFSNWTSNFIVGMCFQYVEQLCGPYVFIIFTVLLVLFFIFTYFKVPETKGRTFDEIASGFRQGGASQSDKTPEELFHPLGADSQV

SMILES strings stand for the structures. pIC50, pKi: −log10 of the molar value. “Also recorded” adds a separate entry of the source. Structures can show the parent of a compound that is named as a salt. Where two headings read alike, the source gives them in different places.

Chain of MCT1 (P53985 whole entry): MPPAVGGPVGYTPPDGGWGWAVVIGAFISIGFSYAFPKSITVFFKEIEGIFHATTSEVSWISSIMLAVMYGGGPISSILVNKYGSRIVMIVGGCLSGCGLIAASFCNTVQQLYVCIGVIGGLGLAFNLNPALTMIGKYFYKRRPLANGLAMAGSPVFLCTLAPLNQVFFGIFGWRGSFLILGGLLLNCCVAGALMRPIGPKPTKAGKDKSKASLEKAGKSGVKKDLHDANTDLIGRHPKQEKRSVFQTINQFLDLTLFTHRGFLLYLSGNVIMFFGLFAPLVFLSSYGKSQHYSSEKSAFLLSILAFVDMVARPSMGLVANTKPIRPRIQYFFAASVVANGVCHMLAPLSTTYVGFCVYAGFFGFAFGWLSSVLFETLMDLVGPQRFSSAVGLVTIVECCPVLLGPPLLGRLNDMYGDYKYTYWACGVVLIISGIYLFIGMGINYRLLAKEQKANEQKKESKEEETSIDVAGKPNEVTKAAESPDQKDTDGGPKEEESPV
Chain of proteinase-activated receptor 1 (PAR1) (P25116 22-425, species assumed): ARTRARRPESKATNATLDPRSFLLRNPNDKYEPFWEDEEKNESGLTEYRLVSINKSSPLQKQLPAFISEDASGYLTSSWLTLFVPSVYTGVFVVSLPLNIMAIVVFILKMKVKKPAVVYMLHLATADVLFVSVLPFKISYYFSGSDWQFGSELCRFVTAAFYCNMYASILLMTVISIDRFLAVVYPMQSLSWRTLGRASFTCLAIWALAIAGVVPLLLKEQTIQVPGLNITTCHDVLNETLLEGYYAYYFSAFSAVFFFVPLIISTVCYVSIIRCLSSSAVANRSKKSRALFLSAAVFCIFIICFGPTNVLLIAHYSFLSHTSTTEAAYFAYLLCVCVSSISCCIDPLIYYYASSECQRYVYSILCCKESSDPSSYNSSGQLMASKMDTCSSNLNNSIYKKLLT
Chain of PAR2 (P55085 26-397): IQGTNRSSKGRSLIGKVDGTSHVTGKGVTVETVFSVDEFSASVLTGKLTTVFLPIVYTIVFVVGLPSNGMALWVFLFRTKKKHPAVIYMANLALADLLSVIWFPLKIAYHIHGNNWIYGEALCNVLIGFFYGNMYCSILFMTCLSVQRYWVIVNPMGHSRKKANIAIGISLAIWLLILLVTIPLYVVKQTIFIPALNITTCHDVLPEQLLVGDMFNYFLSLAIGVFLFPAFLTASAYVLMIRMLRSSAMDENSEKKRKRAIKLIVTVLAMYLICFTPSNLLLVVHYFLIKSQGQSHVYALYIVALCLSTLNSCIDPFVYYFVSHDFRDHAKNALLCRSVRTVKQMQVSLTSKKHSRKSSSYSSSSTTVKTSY
Chain of PAR4 (Q96RI0 18-385): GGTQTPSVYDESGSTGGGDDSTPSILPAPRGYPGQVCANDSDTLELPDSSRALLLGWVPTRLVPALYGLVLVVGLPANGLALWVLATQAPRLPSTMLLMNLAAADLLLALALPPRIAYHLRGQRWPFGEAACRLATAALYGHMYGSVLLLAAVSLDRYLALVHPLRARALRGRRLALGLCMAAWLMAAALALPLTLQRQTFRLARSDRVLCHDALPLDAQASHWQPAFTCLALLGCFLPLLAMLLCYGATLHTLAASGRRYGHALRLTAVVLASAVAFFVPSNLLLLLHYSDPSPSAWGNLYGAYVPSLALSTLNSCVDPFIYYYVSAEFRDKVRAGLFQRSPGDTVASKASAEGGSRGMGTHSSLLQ

On to `COCCn1c2c([n+](Cc3cnccn3)c1C)C(=O)c1ccccc1C2=O` [YM-155, 1-(2-methoxyethyl)-2-methyl-3-(pyrazin-2-ylmethyl)benzo[f]benzimidazol-3-ium-4,9-dione;bromide], for which the “selectivity of growth inhibition, mesenchymal vs epithelial cancer cells” value in [1] was “selective for inhibiting growth of mesenchymal cancer cells; also recorded: selectively targeted cancer cells that have undergone an epithelial-to-mesenchymal transition”. In addition, the pIC50 (in general, the IC50 on a negative log10 scale, so that one unit is a factor of ten) in data set [2] was 9.27. In data set [3], the “inhibition of SV40 promoter activity” value was “does not significantly inhibit”. For the same compound, in data set [4], the “selective efficacy / lethality in the mesenchymal cell state” value is recorded as “potent selectivity against the mesenchymal cell state”. Besides, the “correlation of compound AUC with composite EMT signatures” value in [5] is “top positively correlated compound”.

`CC[C@H]1/C=C/C=C/C[C@@H](C)[C@H](O)[C@@](C)(O)C(=O)[C@@H](C)[C@H](O)[C@@H](C)C(=O)[C@@H](C)[C@H](O)[C@@H](C)/C=C/C(=O)O[C@@H]2[C@H](C)[C@H](CC1)O[C@]1(CC[C@H](C)[C@H](C[C@@H](C)O)O1)[C@H]2C` [Oligomycin A, (1R,4E,5′S,6S,6′S,7R,8S,10R,11R,12S,14R,15S,16R,18E,20E,22R,25S,27R,28S,29R)-22-ethyl-7,11,14,15-tetrahydroxy-6′-[(2R)-2-hydroxypropyl]-5′,6,8,10,12,14,16,28,29-nonamethyl-3′,4′,5′,6′-tetrahydro-3H,9H,13H-spiro[2,26-dioxabicyclo[23.3.1]nonacosa-4,18,20-triene-27,2′-pyran]-3,9,13-trione]: the “solubility in water and other biocompatible solvents” value in data set [6] is on record as “poor solubility”. Also, the GI50 (commonly the concentration at which growth is held to half of that of the control) in [7] was 270 nM.

Regarding `OCCNCCCOc1cccc(Cl)c1Cl` [2,3-DCPE, 2-[3-(2,3-dichlorophenoxy)propylamino]ethanol;hydrochloride], the figures for the negative logarithm of the IC50 (pIC50) in data set [8] and in [9] were 5.57 to 6.05 and 4.90, respectively.

Consider `O=C(CCc1ccc(O)cc1)c1c(O)cc(O)cc1O` [Phloretin, 3-(4-hydroxyphenyl)-1-(2,4,6-trihydroxyphenyl)propan-1-one], for which the pIC50 in data set [10] was 4.85; in [11], 4.55. For the same compound, in data set [12], the negative-log Ki (pKi) (usually the Ki on a negative log10 scale, so that one unit is a factor of ten) is 4.07.

As for `O=C(Nc1ccc([N+](=O)[O-])cc1O)Nc1ccccc1Br` [SB 225002, 1-(2-bromophenyl)-3-(2-hydroxy-4-nitrophenyl)urea], the negative-log IC50 (pIC50) in [13] is 7.70; in [14], 7.52.

Turning to `CC(C)c1ccc(Cn2ccc3c4c(N)nc(NC5CC5)nc4ccc32)cc1` [SCH 79797, 3-N-cyclopropyl-7-[(4-propan-2-ylphenyl)methyl]pyrrolo[3,2-f]quinazoline-1,3-diamine], the pIC50 is 6.52 in [15] (inducer haTRAP, read-out: IC50, platelet aggregation induced by haTRAP); 5.52 in data set [15] (inducer α-thrombin, read-out: IC50, platelet aggregation induced by α-thrombin); 7.15 in data set [18]. The “activity against PAR2” value in [16] is “no activity”. In addition, in data set [17], the “activity against PAR4” value is reported as “no activity”.

Take `O=C(Nc1ccc([N+](=O)[O-])cc1Cl)c1cc(Cl)ccc1O` [niclosamide, 5-chloro-N-(2-chloro-4-nitrophenyl)-2-hydroxybenzamide]: in data set [4], the “selective efficacy / lethality in the mesenchymal cell state” value is listed as “selective efficacy in mesenchymal cancer cells”. In data set [19], the “correlation of compound AUC with composite EMT signatures” value was “top positively correlated compound”.

On to `CN(C)C(=O)n1nnnc1Cc1ccc(-c2ccccc2)cc1` [LY2183240, N,N-dimethyl-5-[(4-biphenyl)methyl]tetrazole-1-carboxamide], for which, in data set [20] (read-out: IC50, anandamide uptake), the pIC50 is 3.57. Besides, the pKi in [20] (read-out: Ki, anandamide uptake) was 3.27. Moreover, in data set [21], the “ED50, increase of anandamide levels” value is 1.37 mg/kg.

In the case of `CC(C)(C)c1ccc(S(=O)(=O)NCc2ccc(C(=O)Nc3cccnc3)cc2)cc1` [STF-31, 4-[[[[4-(1,1-dimethylethyl)phenyl]sulfonyl]amino]methyl]-N-3-pyridinyl-benzamide], the pIC50 in [22] is about 6.00.
